Results reported in patent EP0480690A1, “Aqueous ophthalmic microemulsions of tepoxalin” (CIBA-GEIGY AG, priority 1990, dated 1992).

Key:
rabbit cornea = assay: In vitro corneal penetration in modified Ussing chambers; type: in vitro ADME; conditions: 0.1% suspension and 0.1% microemulsion, 0 to 240 minutes
Experimental: Modified Ussing type chambers (H.F. Edelhauser, J.R. Hoffert, P.O. Fromm, Invest. Ophthalmol. Vis. Sci., 4:290-296 (1965)) designed with 2.5 ml donor and 2.5 ml receiver cells (separated by the cornea which is mounted between two sealing rings) are used for the studies to determine penetration of the cornea by the microemulsions of the invention. The system is 2-chambered (in vitro cells) (see Figure 1) and is designed to monitor the penetration of drug entities across biological membranes. Usually the cells are temperature controlled by means of an exterior water jacket; the stirring of the dosing and receiving solutions in the cells is achieved by bubbling a gas through the cells. In the case of the cornea, the gas is a mixture of 5% CO₂ balanced with oxygen, to maintain physiological Ph.
The eyes were enucleated with the conjunctival sac and lids attached. The cornea was excised and mounted using the Dikstein and Maurice Technique (S. Dikstein and D.M. Maurice, J. Physiol., 221: 29-41 (1972)). […]
100 µl Aliquots were sampled from the receiver side over a 4-hour period (0, 15, 30, 45, 60, 90, 120, 180 and 240 minutes). […] The mounted corneas were removed from the cells and the percentage hydration calculated by weighing the isolated tissue before and after drying (the corneas were placed in an oven overnight at 45°C). […] Untreated corneas were assessed as controls. […]

[1] = Accelerated degradation of tepoxalin (16 hours at 100°C, HPLC); type: physicochemical
Experimental: The results of the first stability study prompted an investigation for a way to reformulate. Tepoxalin appears to hydrolyze at the amide group to form a carboxylic acid. An accelerated procedure has been developed to observe this degradation within 16 hours. The sample is analyzed by reversed-phase HPLC using a diode array for detection. […] With disodium Edetate in the microemulsion, the drug degraded at and above pH 7.0; degradation was minimal at pH's 5.0, 5.5 and 6.0. Thus, a second stability study was begun with 0.03% disodium Edetate in the formulation and the pH adjusted to 5.9 - 6.1 with a citric acid/sodium phosphate dibasic buffer.
A number of experiments were performed in succession in order to elucidate a mechanism for the degradation of tepoxalin in water and in the microemulsion and to determine optimum conditions for the tepoxalin microemulsion. The drug is suspected of vulnerability to acid and base catalysis of its […] amide group forming a carboxylic acid. The experiments and results: • (a) 0.1% tepoxalin was dissolved in 50:50 water: ethanol and aliquots were pH adjusted with 1M NaOH to 5.0, 6.0, 7.0, 8.0 and 12.6. The aliquots were heated in capped reaction vials for 16 hours at 100°C.
Two drops of 1M citric acid solution were added to an aliquot (1 ml) and the pH was adjusted with 1.0 M sodium phosphate dibasic to pH 5.0, 6.0, 7.0, and 7.6. The samples were heated as before.
The chromatograms show two major degradation products: one eluting before tepoxalin and another after.
The optimum pH appears between pH 6.2 and 6.4, but there is still significant degradation. • (d) The previous experiment (c) was repeated with disodium Edetate 0.03% in each sample and with the same pH range.
The presence of the second degradate that elutes before tepoxalin is also minimal. • (e) Experiment (d) was repeated with a broader pH range: 5.0, 5.5, 6.0, and 7.0.

[2] = Solubility studies on tepoxalin in various vehicles; type: physicochemical
Description: The low aqueous solubility of tepoxalin prompted solubility experiments with oils, surfactants, hydroxypropyl-beta-cyclodextrin, and combinations thereof. These experiments are summarized above in Table 1. A tepoxalin content of greater than 0.1% could be attained with a microemulsion using 1% castor oil and 2% of a Tween (polysorbate). […] The sequence of adding, mixing, and sonicating the drug and excipients is important in attaining a concentration greater than 0.1%.
Thus, 0.134% of the 0.15% drug in the emulsion resides in the interface.

COc1ccc(-n2nc(CCC(=O)N(C)O)cc2-c2ccc(Cl)cc2)cc1 [Tepoxalin, 3-[5-(4-chlorophenyl)-1-(4-methoxyphenyl)-3-pyrazolyl]-N-hydroxy-N-methylpropanamide]
penetration of tepoxalin across the cornea (rabbit cornea): penetrating the cornea from both formulations | degradation of tepoxalin ([1]; 0.1% microemulsion (castor oil, Tween 60, citrate/phosphate buffer), pH 5.0, 6.0, 7.0, 7.6, no Edetate, 16 hours at 100°C): The degradation occurs greatest at pH 5.0 and 7.6 | degradation of tepoxalin ([1]; 0.1% tepoxalin in 50:50 water:ethanol, pH 5.0, 6.0, 7.0, 8.0, 12.6, 16 hours at 100°C): a degradation peak eluting after tepoxalin in samples at pH 6, 7, 8, 12.6 but not at pH 5.0 | pH of optimum stability ([1]; microemulsion with disodium Edetate 0.03%, from tepoxalin peak areas and heights): optimum stability between 5.5 and 6.0 | degradation of tepoxalin ([1]; microemulsion with disodium Edetate 0.03%, pH 5.0, 5.5, 6.0 and 7.0): Degradation was minimal at pH 5.0, 5.5, and 6.0 | degradation of tepoxalin ([1]; microemulsion with disodium Edetate 0.03%, pH 6.0 to 7.0): Degradation is minimal at pH 6.0 and increases with pH to 7.0 | pH of minimum degradation ([1]; microemulsion without Edetate, pH range 5 to 7.6): 6.2 - 6.4 | Tepoxalin Solubility ([2]; Matrix: Water, Neat): 0.00044% | Tepoxalin Solubility ([2]; Oil, Surfactant Microemulsion: castor oil 1%, Tween 60 2%): 0.15% | Tepoxalin Solubility ([2]; Oil, Surfactant Microemulsion: castor oil 1%, Tween 80 2% (tepoxalin is added after microemulsion)): 0.085% | Tepoxalin Solubility ([2]; Oil, Surfactant Microemulsion: castor oil 1%, Tween 80 2% (tepoxalin is added before emulsion is prepared)): 0.147% | Tepoxalin Solubility ([2]; Oil, Surfactant Microemulsion: castor oil 2%, Tween 80 2%): 0.106% | Tepoxalin Solubility ([2]; Oil, Surfactant Microemulsion: castor oil 3%, Pluronic P-105 7%): 0.108% | Tepoxalin Solubility ([2]; Oils: Cottonseed, Neat): 0.06% | Tepoxalin Solubility ([2]; Oils: castor, Neat): 1.6% | Tepoxalin Solubility ([2]; Oils: mineral, Neat): 0.0% | Tepoxalin Solubility ([2]; Oils: perfluoro-decalin, Neat): 0.0% | Tepoxalin Solubility ([2]; Oils: sesame, Neat): 0.4% | Tepoxalin Solubility ([2]; Oils: sunflower Seed, Neat): 0.4% | Tepoxalin Solubility ([2]; Surfactant and HP-β-CD Solution: HP-β-CD 5%, Tween 80 2%): 0.097% | Tepoxalin Solubility ([2]; Surfactant and HP-β-CD Solution: HP-β-CD 10%, Tween 80 1%): 0.113% | Tepoxalin Solubility ([2]; Surfactants: Pluronic F-127, aqueous 6%): 0.035% | Tepoxalin Solubility ([2]; Surfactants: Pluronic P-105, aqueous 6% w/w): 0.099% | Tepoxalin Solubility ([2]; Surfactants: Tween 20, aqueous 2%): 0.053% | Tepoxalin Solubility ([2]; Surfactants: Tween 40, aqueous 2%): 0.066% | Tepoxalin Solubility ([2]; Surfactants: Tween 60, aqueous 2%): 0.079% | Tepoxalin Solubility ([2]; Surfactants: Tween 80, aqueous 1%): 0.030% | Tepoxalin Solubility ([2]; Surfactants: Tween 80, aqueous 2%): 0.089% | Tepoxalin Solubility ([2]; Surfactants: Tween 80, aqueous 3%): 0.099% | Tepoxalin Solubility ([2]; Surfactants: Tween 80, aqueous 6%): 0.120% | Maximum tepoxalin solubility for castor oil ([2]; castor oil): 1.6% | tepoxalin content ([2]; microemulsion using 1% castor oil and 2% of a Tween (polysorbate)): greater than 0.1% | drug in the emulsion that resides in the interface ([2]; of the 0.15% drug in the emulsion, 1% castor oil dispersed): 0.134%
